Results on one compound are retold here after US6953570B2, “Porphyrins with enhanced multi-photon absorption cross-sections for photodynamic therapy” (Montana State University, priority 2001, dated 2005).

This assay can be described thus: Singlet oxygen 1Δg→3Σg luminescence after two-photon excitation of the photosensitizer. In kind it is physicochemical. The settings on record: air-saturated toluene solution, Ti:sapphire regenerative amplifier output 780 nm. The procedure:
As illustrated in FIG. 4(a), the ^1Δg→^3Σg luminescence spectra of molecular oxygen in an air-saturated toluene solution of compound I after both one- and two-photon excitation were measured. The one-photon excitation is represented by the dashed line and the two-photon excitation is shown by the solid line. Both spectra are normalized to unity. For one photon excitation, second harmonics of a Ti:sapphire regenerative amplifier, 390 nm, with an average power intensity of 0.5 W/cm^2 were used, while for two-photon excitation, the output of a Ti:sapphire regenerative amplifier, 780 nm, with an average power intensity of 15 W/cm^2 was used. In both cases, the laser beam was slightly focused into a 1-cm cell to give a cylindrical irradiated volume of ˜1.5 mm diameter. The singlet oxygen luminescence spectrum was measured with a nitrogen-cooled Ge detector coupled with Jobin-Yvon monochromator and a lock-in amplifier.
FIG. 4(b) graphs the dependence of the ^1Δg→^3Σg luminescence intensity (lΔ) on the average illumination intensity, P, of molecular oxygen in an air-saturated toluene solution of compound I after two-photon excitation. The raw experimental data are shown by black squares, with the best power-law fit, lΔ=aP^n with n=2.1±0.1 shown by the dotted line.

On to `Clc1cccc(Cl)c1-c1c2nc(cc3ccc([nH]3)c(-c3ccc(C=Cc4ccc(N(c5ccccc5)c5ccccc5)cc4)cc3)c3nc(cc4ccc1[nH]4)C=C3)C=C2` [Compound I, 5-[4′″-(diphenylamino)-4″-stilbenyl]-15-[2′,6′-dichlorophenyl]-21H, 23H-porphyrin], for which the “exponent n of best power-law fit lΔ=aP^n (1Δg→3Σg luminescence intensity lΔ versus average illumination intensity P)” value was found to be 2.1±0.1.
